Experimental data reported in patent US12612412B2, “Antiviral heterocyclic compounds” (Enanta Pharmaceuticals, Inc., priority 2021, dated 2026).

Legend:
[1] = test system: genotype A, "Long" strain RSV; test: RSV-A assay (CPE protection in Hep-2 cells, ATPlite readout); format: cell-based, Human respiratory syncytial virus (HRSV); details: human respiratory syncytial virus, genotype A “Long” strain RSV, MOI 0.1, CPE protection, read-out: Human RSV-A (“Long”)
Outline: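 Compound effect on RSV-induced CPE: Hep-2 monolayers, MOI 0.1, duplicate 2-fold titrations, 5-day culture in 10% FBS DMEM. Readout is ATP-based luminescence, normalised to virus-only and no-virus controls, giving EC50.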

[2] = test system: recombinant HMPV CAN97-83 containing eGFP (MPV-GFP1); test: HMPV antiviral assay Method-A (MPV-GFP1 eGFP fluorescence in Vero E6 cells); format: cell-based, Human metapneumovirus (HMPV); details: human metapneumovirus, Vero C1008, 120 h, read-out: HMPV EC50
Experimental: HMPV antiviral activity was evaluated using a recombinant version of HMPV CAN97-83 engineered to contain the coding sequence for enhanced green fluorescence protein (eGFP) in the 3′ end of the virus genome (MPV-GFP1, ViraTree). Vero E6 cells ([…]) were seeded at a density of 12,000 cells/100 μL/well into 96-well cell plates one day prior to the assay. On the day of screening, the cell culture medium was aspirated from the wells and cells were washed twice with serum-free Eagle's Modified Essential Medium (EMEM, ATCC #) containing 1% penicillin-streptomycin (Invitrogen) (SF-EMEM). Cell washes were performed by dispensing 100 μL SF-EMEM per well and immediately aspirating the wash medium from the well. Following the second wash step, serum-free OptiMEM (Invitrogen, Cat No.) (SF-OptiMEM) containing 0.5 μg/mL TPCK-Trypsin (VENDOR) and 1% penicillin-streptomycin was added to the cells at 50 μL/well. Compounds were added into the 96-well plates using a JANUS automated liquid handling system (VENDOR). Compounds were initially diluted 1:50 into an intermediate 96-well plate containing SF-OptiMEM prior to transfer to the assay plate (25 μL/well). Each of the test compounds were tested in duplicate wells at final concentrations starting from 8 μM or 2 μM using ½ stepwise dilutions for a total of 8 points. Virus infection was performed by preparing a working stock of MPV-GFP1 at a multiplicity of infection (MOI) equal to 0.05/25 μL and aliquoting 25 μL of virus inoculum to the compound and positive control wells. SF-OptiMEM was added (25 μL/well) to the appropriate wells to serve as a virus-free negative control for the assay. The final DMSO concentration of all wells is 0.5%. Plates were incubated at 32° C., 5% CO2 for 5 days.
After 5 days incubation, eGFP fluorescence intensity was measured at (X) […] wavelength using a Spectramax i3× plate reader (VENDOR). Percent viral inhibition was calculated using the following equation: y=[…]
Where XQ is the fluorescence intensity measured in a well containing recombinant MPV-GFP1-infected, compound-treated cells and XP is the average fluorescence intensity measured in the wells containing untreated cells infected with recombinant virus. EC50 values were then calculated by non-linear regression using a four parameter curve logistic equation. The curve fit model employed was XLFit Dose Response One Site Model 200: y=(A+(B/(1+((x/C)^D))))
Where A is the minimum y value, B is the maximum y value, C is the log EC50 value, and D is the slope factor. […] EC50 ranges are as follows: A<0.5 μM; B>0.5 μM.

| SMILES | EC50 [1] | EC50 [2] |
| --- | --- | --- |
| C[C@]1(C(N)=O)COc2c1cc([C@@](O)(CNC(=O)c1cc(Cl)c3ncc(C(F)(F)F)cc3c1)C(F)(F)F)nc2-c1ccc(F)cc1 [Example 73] | < 0.2 µM | < 0.5 µM |
| Cc1cc2cc(C(=O)NC[C@](O)(c3cc4c(c(-c5ccc(F)cc5)n3)OC[C@]4(C)C(N)=O)C(F)(F)F)cc(O)c2nc1C [Example 74] | < 0.2 µM | < 0.5 µM |
| COc1cc(C(=O)NC[C@](O)(c2cc3c(c(-c4ccc(F)cc4)n2)OC[C@]3(C)C(N)=O)C(F)(F)F)cc2cc(CO)c(C)nc12 [Example 75] | < 0.2 µM | > 0.5 µM |
| Cc1nc2c(Cl)cc(C(=O)NC[C@](O)(c3cc4c(c(-c5ccc(F)cc5)n3)OC[C@]4(C)C(N)=O)C(F)(F)F)cc2s1 [Example 77] | < 0.2 µM | < 0.5 µM |
| COc1cc(C(=O)NC[C@](O)(c2cc3c(c(-c4ccc(F)cc4)n2)OC[C@]3(C)C(N)=O)C(F)(F)F)cc2cc(C3CC3)c(C)nc12 [Example 78] | < 0.2 µM | > 0.5 µM |
| Cc1nc2c(OC3CC3)cc(C(=O)NC[C@](O)(c3cc4c(c(-c5ccc(F)cc5)n3)OC[C@]4(C)C(N)=O)C(F)(F)F)cc2s1 [Example 80] | < 0.2 µM | < 0.5 µM |
| COc1cc(C(=O)NC[C@](O)(c2cc3c(c(-c4ccc(F)cc4)n2)OC[C@]3(C)C(N)=O)C(F)(F)F)cc2cc(C3CC3)nnc12 [Example 81] | < 0.2 µM | > 0.5 µM |
| COc1cc(C(=O)NC[C@](O)(c2cc3c(c(-c4ccc(F)cc4)n2)OC[C@]3(C)C(N)=O)C(F)(F)F)cc2cc(Cl)c(C)nc12 [Example 82] | < 0.2 µM | < 0.5 µM |
| COc1cc(C(=O)NC[C@](O)(c2cc3c(c(-c4ccc(F)cc4)n2)OC[C@]3(C)C(N)=O)C(F)(F)F)cc2cc(C(F)(F)F)c(C)nc12 [Example 83] | < 0.2 µM | < 0.5 µM |
| C[C@]1(C(N)=O)COc2c1cc([C@@](O)(CNC(=O)c1cc(Cl)c3nn(C4CC4)cc3c1)C(F)(F)F)nc2-c1ccc(F)cc1 [Example 84] | < 0.2 µM | < 0.5 µM |
| C[C@]1(C(N)=O)COc2c1cc([C@@](O)(CNC(=O)c1cc(Cl)c3nn(C4CC4)cc3c1)C(F)(F)F)nc2-c1ccc(F)c(Cl)c1 [Example 85] | < 0.2 µM | < 0.5 µM |
| COc1cc(C(=O)NC[C@](O)(c2cc3c(c(-c4ccc(F)c(Cl)c4)n2)OC[C@]3(C)C(N)=O)C(F)(F)F)cc2cc(C3CC3)nnc12 [Example 86] | < 0.2 µM | < 0.5 µM |
| C[C@]1(C(N)=O)COc2c1cc([C@@](O)(CNC(=O)c1cc(Cl)c3nc(N)oc3c1)C(F)(F)F)nc2-c1ccc(F)cc1 [Example 91] | < 0.2 µM | > 0.5 µM |
| COc1cc(C(=O)NC[C@](O)(c2cc3c(c(-c4ccc(F)cc4)n2)OC[C@]3(C)C(N)=O)C(F)(F)F)cc2cc(C3CC3)nn12 [Example 92] | < 0.2 µM | < 0.5 µM |
| C[C@]1(C(N)=O)COc2c1cc([C@@](O)(CNC(=O)c1cc(Cl)c3[nH]c(C4CC4)nc3c1)C(F)(F)F)nc2-c1ccc(F)cc1 [Example 94] | < 0.2 µM | > 0.5 µM |
| COc1cc(C(=O)NC[C@](O)(c2cc3c(c(-c4ccc(F)cc4)n2)OC[C@]3(C)C(N)=O)C(F)(F)F)cc2nc(C3CC3)[nH]c12 [Example 95] | < 0.2 µM | > 0.5 µM |
| C[C@]1(C(N)=O)COc2c1cc([C@@](O)(CNC(=O)c1cc(OC3CC3)c3nc(C4CC4)sc3c1)C(F)(F)F)nc2-c1ccc(F)cc1 [Example 96] | < 0.2 µM | < 0.5 µM |
| Cc1nc2c(OC(F)(F)F)cc(C(=O)NC[C@](O)(c3cc4c(c(-c5ccc(F)cc5)n3)OC[C@]4(C)C(N)=O)C(F)(F)F)cc2s1 [Example 97] | < 0.2 µM | > 0.5 µM |
| Cc1n[nH]c2ccc(C(=O)NC[C@](O)(c3cc4c(c(-c5ccc(F)cc5)n3)OC[C@]4(C)C(N)=O)C(F)(F)F)cc12 [Example 100] | < 0.2 µM | > 0.5 µM |
| CCc1cc(C(=O)NC[C@](O)(c2cc3c(c(-c4ccc(F)cc4)n2)OC[C@]3(C)C(N)=O)C(F)(F)F)cc2cn[nH]c12 [Example 102] | < 0.2 µM | < 0.5 µM |
